{
  "source": "paper PMC7123690",
  "about": "(HCV: The Journey from Discovery to a Cure, 2018)",
  "origin": "cited, not measured here",
  "key": {"[1]": {"target": "HCV NS3/4A GT-1a enzyme", "conditions": "read-out: IC50 GT-1a enzyme"}, "[2]": {"tested_on": "HCV GT-1b replicon", "conditions": "read-out: EC50 GT-1b replicon"}, "[3]": {"conditions": "RLM"}, "[4]": {"conditions": "dog LM"}, "[5]": {"conditions": "cynomolgus monkey LMs"}, "[6]": {"conditions": "HLM"}, "[7]": {"tested_on": "isolated rabbit hearts", "conditions": "for effects on HR and SNRT: 60 min perfusion"}, "[8]": {"tested_on": "individual recombinant CYP enzymes"}, "[9]": {"tested_on": "CYP 2D6", "conditions": "recombinant CYP 2D6"}, "[10]": {"tested_on": "CYP 2C9", "conditions": "recombinant CYP 2C9"}, "[11]": {"tested_on": "CYP 2C19", "conditions": "recombinant CYP 2C19"}, "[12]": {"tested_on": "CYP 1A2", "conditions": "recombinant CYP 1A2"}, "[13]": {"tested_on": "CYP 3A4"}, "[14]": {"assay": "not given", "remark": "listed apart in the source"}, "[15]": {"conditions": "P-gp knockout mice"}, "[16]": {"conditions": "rat, dog, and cynomolgus monkey plasma"}, "[17]": {"tested_on": "GT-1 and GT-4 replication", "conditions": "GT-1 and GT-4 replicons"}, "[18]": {"tested_on": "HCV", "conditions": "combined with IFN-α, ribavirin (52), 2 and 3"}, "[19]": {"assay": "not given", "remark": "listed apart in the source"}, "[20]": {"tested_on": "HCV GT-1", "conditions": "HCV GT-1 patients"}, "[21]": {"conditions": "rat"}, "[22]": {"conditions": "dog"}, "[23]": {"tested_on": "bovine viral diarrhea virus"}, "[24]": {"tested_on": "canine parainfluenza virus"}, "[25]": {"tested_on": "HIV-1"}, "[26]": {"assay": "not given", "remark": "listed apart in the source"}, "[27]": {"tested_on": "GT-1 HCV", "conditions": "120 mg dose, 12-h post-dose, GT-1 HCV patients"}, "[28]": {"assay": "not given", "remark": "listed apart in the source"}, "[29]": {"conditions": "dog", "remark": "listed apart in the source"}, "[30]": {"conditions": "anesthetized rabbits"}, "[31]": {"tested_on": "cardiac ion channel and receptor screens"}, "[32]": {"conditions": "60-min perfusion protocol, 10 μM, similar to vehicle control"}},
  "note": "Where two headings read alike, the source gives them in different places.",
  "data": [
    {"smiles": "C=C[C@@H]1C[C@]1(NC(=O)[C@@H]1C[C@@H](Oc2ncc(OC)c3ccc(Cl)cc23)CN1C(=O)[C@@H](NC(=O)OC(C)(C)C)C(C)(C)C)C(=O)NS(=O)(=O)C1CC1", "note": "[Compound 1, Asunaprevir]", "values": [
      {"measurement": "IC50", "setting": "[1]", "result": 0.001, "unit": "µM"},
      {"measurement": "EC50", "setting": "[2]", "result": 0.006, "unit": "µM"},
      {"measurement": "turnover in LMs", "setting": "[3]", "result": 4.9, "unit": "pmol/min/mg"},
      {"measurement": "turnover in LMs", "setting": "[4]", "result": 4.7, "unit": "pmol/min/mg"},
      {"measurement": "turnover in LMs", "setting": "[5]", "result": "50 ± 22", "unit": "pmol/min/mg"},
      {"measurement": "turnover in LMs", "setting": "[6]", "result": "5.8 ± 1.8"},
      {"measurement": "plasma protein binding", "setting": "human plasma", "result": 98.8, "unit": "%"},
      {"measurement": "maximal increase in SNRT", "setting": "[7]; [32]", "result": 14, "unit": "%"},
      {"measurement": "maximal reduction of heart rate", "setting": "[7]; [32]", "result": 10, "unit": "%"},
      {"measurement": "% HR change", "setting": "[7]; perfusion concentration 10 μM", "result": "−4", "unit": "%"},
      {"measurement": "% SNRT change", "setting": "[7]; perfusion concentration 10 μM", "result": 5, "unit": "%"},
      {"measurement": "metabolic turnover by recombinant CYP enzymes", "setting": "[8]", "result": "significant metabolic turnover only by CYP 3A4"},
      {"measurement": "IC50", "setting": "[9]", "result": "> 40", "unit": "µM"},
      {"measurement": "IC50", "setting": "[10]", "result": "> 40", "unit": "µM"},
      {"measurement": "IC50", "setting": "[11]", "result": "> 40", "unit": "µM"},
      {"measurement": "IC50", "setting": "[12]", "result": "> 40", "unit": "µM"},
      {"measurement": "IC50", "setting": "[13]; CYP 3A4, substrate probe 7-benzyloxy-trifluoromethylcoumarin (BFC)", "result": 29, "unit": "µM"},
      {"measurement": "IC50", "setting": "[13]; CYP 3A4, substrate probe benzyloxyresorufin (BZR)", "result": 8, "unit": "µM"},
      {"measurement": "IC50", "setting": "[13]; CYP 3A4, substrate probe midazolam", "result": 27, "unit": "µM"},
      {"measurement": "permeability in PAMPA", "setting": "[14]; pH = 5.5", "result": "> 47.3", "unit": "×10⁻⁶ cm/s"},
      {"measurement": "permeability in PAMPA", "setting": "[14]; pH = 7.4", "result": "> 49.2", "unit": "×10⁻⁶ cm/s"},
      {"measurement": "oral bioavailability", "setting": "[15]", "result": "> 100", "unit": "%"},
      {"measurement": "plasma protein binding", "setting": "[16]", "result": "97.2–98.8%"},
      {"measurement": "EC50", "setting": "[17]", "result": "< 0.005", "unit": "µM"},
      {"measurement": "activity in combination studies", "setting": "[18]", "result": "additive or synergistic activity"},
      {"measurement": "adverse events (AEs)", "setting": "[19]; NHVs, single doses 10-1,200 mg oral suspension", "result": "generally mild to moderate and comparable to the placebo controls"},
      {"measurement": "cardiac safety analysis", "setting": "[19]; short duration SAD study", "result": "no evidence of an increased risk of adverse cardiac events"},
      {"measurement": "mean plasma HCV RNA decline", "setting": "[20]; single 50 mg dose", "result": 0.64, "unit": "log10 IU/mL"},
      {"measurement": "mean plasma HCV RNA decline", "setting": "[20]; single 200 mg dose", "result": 2.26, "unit": "log10 IU/mL"},
      {"measurement": "mean plasma HCV RNA decline", "setting": "[20]; single 600 mg dose", "result": 2.87, "unit": "log10 IU/mL"},
      {"measurement": "direct excretion into the bile", "setting": "[21]", "result": "9 % of the dose"},
      {"measurement": "liver level 24-h post-dose", "setting": "[21]; oral", "result": 15.2, "unit": "µM"},
      {"measurement": "direct excretion into the bile", "setting": "[22]", "result": "22 % of the dose"}
    ]},
    {"smiles": "C=C[C@@H]1C[C@]1(NC(=O)[C@@H]1C[C@@H](Oc2nccc3cc(OC)ccc23)CN1C(=O)[C@@H](NC(=O)OC(C)(C)C)C(C)(C)C)C(=O)NS(=O)(=O)C1CC1", "note": "[Compound 30]", "values": [
      {"measurement": "EC50", "setting": "[2]", "result": 0.012, "unit": "µM"},
      {"measurement": "activity in cell culture replication assay", "setting": "[23]", "result": "inactive"},
      {"measurement": "activity in cell culture replication assay", "setting": "[24]", "result": "inactive"},
      {"measurement": "activity in cell culture replication assay", "setting": "[25]", "result": "inactive"},
      {"measurement": "terminal t 1/2", "setting": "[26]; NHVs, single oral doses 10-120 mg", "result": "4 to 8", "unit": "h"},
      {"measurement": "effects on cardiac function (electrocardiographic changes)", "setting": "[26]; one NHV and one HCV-infected patient, 120 mg dose", "result": "transient mild bradycardia, PR interval prolongation, and junctional rhythm disturbances"},
      {"measurement": "mean decline in viral load", "setting": "[27]", "result": 1.8, "unit": "log10 IU/mL"},
      {"measurement": "observed cardiovascular effects", "setting": "[28]; conscious telemetrized dogs, two 15 mpk doses", "result": "a reduction in heart rate and prolongation of the PR interval"},
      {"measurement": "plasma exposure at which CV effects occurred", "setting": "[28]; estimated from non-telemeterized animals", "result": "approximately 12 μM"},
      {"measurement": "affinity for plasma proteins", "setting": "[29]", "result": 98.2, "unit": "%"},
      {"measurement": "affinity for plasma proteins", "setting": "human", "result": 99.1, "unit": "%"},
      {"measurement": "decline in HR", "setting": "[30]; IV 1, 3 and 10 mpk each infused over 5 min", "result": 32, "unit": "bpm"},
      {"measurement": "reduction in blood pressure from baseline", "setting": "[30]; not drug related, also seen in vehicle controls", "result": "14–23 mmHg"},
      {"measurement": "decline in HR", "setting": "[7]; 3 μM, ~12 min perfusion", "result": "−15", "unit": "bpm"},
      {"measurement": "decline in HR", "setting": "[7]; 10 μM, ~12 min perfusion", "result": "−23", "unit": "bpm"},
      {"measurement": "effects on atrioventricular conduction time or QRS interval", "setting": "[7]; 0.3-10 μM", "result": "no effects"},
      {"measurement": "increase in SNRT", "setting": "[7]; 3 and 10 μM, ~12 min perfusion", "result": "≥ 425", "unit": "ms"},
      {"measurement": "effects on HR and SNRT", "setting": "[7]; 0.1 μM", "result": "absent"},
      {"measurement": "effects on HR and SNRT", "setting": "[7]; 0.3 μM", "result": "attenuated"},
      {"measurement": "effects on HR and SNRT", "setting": "[7]; 1 μM", "result": "effects on HR and SNRT were observed"},
      {"measurement": "% HR change", "setting": "[7]; perfusion concentration 10 μM", "result": "−25", "unit": "%"},
      {"measurement": "outcome of cardiac ion channel and receptor screens", "setting": "[31]", "result": "failed to identify a biochemical target"},
      {"measurement": "oral bioavailability", "setting": "[21]", "result": 18, "unit": "%"},
      {"measurement": "plasma t 1/2", "setting": "[21]", "result": 4.4, "unit": "h"},
      {"measurement": "plasma level 24-h post-dose", "setting": "[21]; oral 20 mpk", "result": 8, "unit": "nM"},
      {"measurement": "oral bioavailability", "setting": "[22]; PO, 1 mpk", "result": 23, "unit": "%"}
    ]}
  ]
}
